The text below walks through data of patent publication US6863898B2, “Method and composition for treating hairy hoof warts” (priority 2002, dated 2005).

In this assay the test system is hairy hoof warts. Kind of assay: Footwrap application of aspirin compositions to infected hoofs of cows with hairy hoof warts. The assay is classed as in vivo. The settings on record: topical; for healing of hairy hoof wart infections (result in words): 23 cubic centimeters in a footwrap left on the hoof about fourteen days. The procedure:
In testing the method of the subject invention on cows with hairy hoof warts, an aspirin composition (100% aspirin powder) was administered to the infected hoof by incorporating the aspirin into a conventional footwrap and wrapping the footwrap about an animal's hoof so that the aspirin was applied to an infected area of an animal's hoof. The aspirin composition of the subject invention that includes about 75% by weight aspirin powder, about 5% by weight hydrated lime, about 15% by weight sodium bentonite, and about 5% by weight chalk was also tested in the same manner. With the application of the aspirin compositions to the infected hoof areas by this method, the infection progressively diminished and the hairy hoof warts were typically healed within about fourteen days. In the method of the subject invention for treating anchor preventing hairy hoof warts, an aspirin composition of 100% aspirin, a composition of another compound or derivative of salicylic acid of 100% of the other compound or derivative, an aspirin containing composition, or a composition containing another compound or derivative of salicylic acid is administered in an effective amount to an infected area of an animal's hoof or, as a preventive measure, to an area of an animal's hoof that could be infected. In a preferred embodiment of the method of the subject invention, the composition of or containing aspirin or another compound or derivative of salicylic acid is incorporated into a conventional footwrap, such as but not limited to a footwrap sold by Minnesota Mining and Manufacturing under the trade designation “[…]”. The footwrap is then applied to an animal's hoof with the composition being applied to the infected area of the hoof or, as a preventive measure, to an area of potential hoof infection. […]

On to `CC(=O)Oc1ccccc1C(=O)O` [100% aspirin powder, aspirin], for which the “healing of hairy hoof wart infections (result in words)” value is, setting by setting: (listed as 100% powdered aspirin composition) “successful in healing even severe hairy hoof wart infections”; (listed as aspirin composition of 100% aspirin) “appeared to achieve the best results”. In addition, the “time until the hairy hoof warts were healed” value (composition in a conventional footwrap on the infected hoof area, typical value) is recorded as “fourteen”.
